From patent US20100113301A1, “METHOD FOR THE IDENTIFICATION AND/OR THE QUANTIFICATION OF A TARGET COMPOUND OBTAINED FROM A BIOLOGICAL SAMPLE UPON CHIPS” (Eppendorf Array Technologies, priority 1999, published 2010)
“And” between values parts separate entries of the source, which are not always exact repeats. Identical values can stand only once.

System: Rat Liver Gene Expression
Assay: Rat liver gene expression on Rat HepatoChips microarrays, colorimetric silver detection
Conditions: liver mRNA of treated rat, 100 mg/kg per day orally for 4 days, raw spot intensity mean, 100 mg/kg/day
Experimental: Female Sprague-Dawley CD rats (aged 10-12 weeks) were dosed orally with 100 mg/kg per day of either Sodium Phenobarbitone (PB) or pregnenalone 16-carbonitrile (PCN) (Sigma-Aldrich Co. Poole, Dorset, UK) for 4 days. Control animals received corresponding quantities (5 ml/kg body weight) of the 0.56% (w/v) gum tragacanth vehicle. Animals were killed by decapitation and the livers immediately removed for further mRNA extraction.
The arrays also include positive and negative controls for the hybridization process, an internal standard control and 8 housekeeping genes.
The Rat HepatoChips is composed of single strand DNA probes attached to the glass by a covalent link. The length of the DNA nucleotide sequences has been optimized. They are the same for all genes and are located near the 3′ end of the transcript. All probes have been designed to be gene specific and have been prepared using rat cDNAs.
Labeled cDNA was prepared using 2 μg mRNA isolated using the FastTrack 2.0 mRNA isolation Kit (Invitrogen). A synthetic poly (A)+tailed mRNA was spiked to the purified mRNA as internal standard to assist in quantification and estimation of experimental variation introduced during labeling and reading. mRNA was added to 2 μl of oligo dT(12-18) primer (0.5 μg/ul) (Gibco BRL), RNase free water was used to bring the volume to 9 μl, and the mixture was denatured at 70° C. for 10 min and then chilled on ice for 5 min. The reverse transcription was performed by adding the following components to the annealed probe/template on ice: 4 μl of First Strand Buffer (250 mM Tris-HCl pH 8.3, 375 mM KCl, 15 mM MgCl2) (Gibco BRL), 2 ul of DTT 0.1 M (Gibco BRL), 40 units of RNasin ribonuclease inhibitor (Promega), 500 μM dATP (Roche), 500 μM dTTP (Roche), 500 μM dGTP (Roche), 80 μM dCTP (Roche), 80 μM biotin-1′-dCTP (NEN). The reaction mixture was mixed gently by flicking the tube and incubated for 5 min at room temperature. 300 units of SuperScript II RT (RNase H—) (Gibco BRL) was added to the reaction mixture and the reverse transcription was allowed to proceed for 90 min at 42° C. Then an additional 300 units of SuperScript II RT was added and incubation was continued at 42° C. for another 90 min. The reaction was ended by heat inactivation at 70° C. for 15 min. To remove RNA complementary to the cDNA, a treatment with RNase H was performed at 37° C. for 20 min following by a heat denaturation at 95° C. for 3 minutes and cooled on ice before use. No further RT product purification was necessary.
The hybridization was performed in a hybridization chamber (Biozym, Landgraaf, The Netherlands) containing the hybridization buffer ‘Hepatobuffer’ and a positive hybridization control (a biotinylated amplicons, at a concentration of 25 nM). Hybridization was carried out overnight at 60° C. The arrays were then washed four times for 2 min with washing buffer at room temperature.
The presence of biotinylated hybrids on the microarray was detected using a antibody anti-biotin conjugate coupled colloidal gold. The arrays were then incubated with a 1:100 dilution of conjugate solution in a blocking buffer (100 mM maleic buffer pH 7.5, 150 mM NaCl and 0.1% milk powder) for […] at room temperature. The array were then washed five times for 2 min at room temperature, rinsed briefly with deionized water then dried. Then array is incubated at room temperature for 5 min in the Silver Blue Solution (AAT, Namur, Belgium), rinsed in water, dried 5′ at 37° C. and read with the scanner described herein.
The scanner used had the following scanning parameters:
Bit depth: 16 bits grayscale (65536 grey levels)
no additional correction of the image (i.e. standard values for contrast, brightness, . . . )
Scanning software: Silverfast from LaserSoft
Quantification Software: Imagene 4.2 from Biodiscovery

For `CCC1(c2ccccc2)C(=O)NC(=O)NC1=O` [phenobarbital, Sodium Phenobarbitone], the “Test Signal, ACO” value (gene ACO) was 51686 16-bits grayscale and 51619 16-bits grayscale, the “Test Signal, Albumin” value (gene Albumin) was 63921 16-bits grayscale and 63641 16-bits grayscale and the “Test Signal, ApoJ” value (gene ApoJ) was 52452 16-bits grayscale and 55866 16-bits grayscale. For the same compound, the “Test Signal, B-actin” value (gene B-actin) was 52992 16-bits grayscale and 55039 16-bits grayscale, the “Test Signal, Bax” value (gene Bax) was 24767 16-bits grayscale and 27814 16-bits grayscale and the “Test Signal, Bcl-2” value (gene Bcl-2) was 21220 16-bits grayscale and 21509 16-bits grayscale. For the same compound, the “Test Signal, C-jun” value (gene C-jun) was 22382 16-bits grayscale and 23523 16-bits grayscale, the “Test Signal, C-myc” value (gene C-myc) was 27229 16-bits grayscale and 28315 16-bits grayscale and the “Test Signal, C/EBP” value (gene C/EBP) was 31394 16-bits grayscale and 31754 16-bits grayscale. For the same compound, the “Test Signal, Cox-2” value (gene Cox-2) was 20187 16-bits grayscale and 20484 16-bits grayscale, the “Test Signal, Cyclin D1” value (gene Cyclin D1) was 25036 16-bits grayscale and 25587 16-bits grayscale and the “Test Signal, Cyp 1a1” value (gene Cyp 1a1) was 20728 16-bits grayscale and 20972 16-bits grayscale. The “Test Signal, Cyp 1b1” value (gene Cyp 1b1) was 22231 16-bits grayscale and 21071 16-bits grayscale, the “Test Signal, Cyp 2b” value (gene Cyp 2b) was 62971 16-bits grayscale and 62867 16-bits grayscale and the “Test Signal, Cyp 3a” value (gene Cyp 3a) was 63098 16-bits grayscale and 63114 16-bits grayscale. The “Test Signal, Cyp 4a1” value (gene Cyp 4a1) was 35089 16-bits grayscale and 35673 16-bits grayscale, the “Test Signal, Cyt oxidase 1” value (gene Cyt oxidase 1) was 63947 16-bits grayscale and 62432 16-bits grayscale and the “Test Signal, Elk” value (gene Elk) was 20632 16-bits grayscale and 20630 16-bits grayscale. For the same compound, the “Test Signal, Enoyl CoA” value (gene Enoyl CoA) was 60758 16-bits grayscale and 60738 16-bits grayscale, the “Test Signal, Erk-1” value (gene Erk-1) was 22998 16-bits grayscale and 23360 16-bits grayscale and the “Test Signal, Ferritin” value (gene Ferritin) was 60237 16-bits grayscale and 59913 16-bits grayscale. For the same compound, the “Test Signal, Fibronectin” value (gene Fibronectin) was 47542 16-bits grayscale and 50240 16-bits grayscale, the “Test Signal, GADD45” value (gene GADD45) was 22359 16-bits grayscale and 22287 16-bits grayscale and the “Test Signal, GADD153” value (gene GADD153) was 23334 16-bits grayscale and 23216 16-bits grayscale. For the same compound, the “Test Signal, GAPDH” value (gene GAPDH) was 58466 16-bits grayscale and 60437 16-bits grayscale, the “Test Signal, GSH reductase” value (gene GSH reductase) was 24281 16-bits grayscale and 23937 16-bits grayscale and the “Test Signal, Glutathione Theta 5” value (gene Glutathione Theta 5) was 30062 16-bits grayscale and 32113 16-bits grayscale. For the same compound, the “Test Signal, Glutatione Ya” value (gene Glutatione Ya) was 63398 16-bits grayscale and 63872 16-bits grayscale, the “Test Signal, HGF” value (gene HGF) was 21195 16-bits grayscale and 20996 16-bits grayscale and the “Test Signal, HGPT” value (gene HGPT) was 26564 16-bits grayscale and 27506 16-bits grayscale. For the same compound, the “Test Signal, HMG” value (gene HMG) was 34978 16-bits grayscale and 36070 16-bits grayscale, the “Test Signal, Histone Dacetyl” value (gene Histone Dacetyl) was 21846 16-bits grayscale and 21766 16-bits grayscale and the “Test Signal, Hox2” value (gene Hox2) was 30000 16-bits grayscale and 29975 16-bits grayscale. The “Test Signal, Hsp 70” value (gene Hsp 70) was 23738 16-bits grayscale and 22628 16-bits grayscale, the “Test Signal, II6” value (gene II6) was 20776 16-bits grayscale and 20646 16-bits grayscale and the “Test Signal, IKB” value (gene IKB) was 21781 16-bits grayscale and 21227 16-bits grayscale. For the same compound, the “Test Signal, JNK” value (gene JNK) was 20743 16-bits grayscale and 20935 16-bits grayscale, the “Test Signal, MDR1” value (gene MDR1) was 27172 16-bits grayscale and 26841 16-bits grayscale and the “Test Signal, Macroglobulin” value (gene Macroglobulin) was 32619 16-bits grayscale and 33165 16-bits grayscale. The “Test Signal, Mgmt” value (gene Mgmt) was 23373 16-bits grayscale and 23981 16-bits grayscale, the “Test Signal, MnSOD” value (gene MnSOD) was 26695 16-bits grayscale and 26251 16-bits grayscale and the “Test Signal, Myr” value (gene Myr) was 22905 16-bits grayscale and 22579 16-bits grayscale. For the same compound, the “Test Signal, NFKB” value (gene NFKB) was 21439 16-bits grayscale and 21343 16-bits grayscale, the “Test Signal, ODC” value (gene ODC) was 23381 16-bits grayscale and 23303 16-bits grayscale and the “Test Signal, P38” value (gene P38) was 26227 16-bits grayscale and 28841 16-bits grayscale. For the same compound, the “Test Signal, P53” value (gene P53) was 25848 16-bits grayscale and 25221 16-bits grayscale, the “Test Signal, PCNA” value (gene PCNA) was 23374 16-bits grayscale and 23609 16-bits grayscale and the “Test Signal, PPAR” value (gene PPAR) was 20767 16-bits grayscale and 20704 16-bits grayscale. The “Test Signal, Phospho A2” value (gene Phospho A2) was 21966 16-bits grayscale and 21421 16-bits grayscale, the “Test Signal, S29” value (gene S29) was 50843 16-bits grayscale and 53202 16-bits grayscale and the “Test Signal, Smp30” value (gene Smp30) was 32696 16-bits grayscale and 31894 16-bits grayscale. For the same compound, the “Test Signal, TGFbRII” value (gene TGFbRII) was 22149 16-bits grayscale and 23021 16-bits grayscale, the “Test Signal, TNF” value (gene TNF) was 21082 16-bits grayscale and 20767 16-bits grayscale and the “Test Signal, Telomerase” value (gene Telomerase) was 23256 16-bits grayscale and 22745 16-bits grayscale. The “Test Signal, Transferrin” value (gene Transferrin) was 61525 16-bits grayscale and 61527 16-bits grayscale, the “Test Signal, Tubulin” value (gene Tubulin) was 36262 16-bits grayscale and 36054 16-bits grayscale and the “Test Signal, UDPGT1a6” value (gene UDPGT1a6) was 22769 16-bits grayscale and 22766 16-bits grayscale. The “Test Signal, UDPGT1a” value (gene UDPGT1a) was 52205 16-bits grayscale and 50981 16-bits grayscale and the “Test Signal, Ubiquitin” value (gene Ubiquitin) was 59171 16-bits grayscale and 59613 16-bits grayscale.
